This is an account of results in US20090285836A1 (NEREUS PHARMACEUTICALS, INC., priority 2008, published 2009).

One series concerns YY1. The experiment in a line: YY1 promoter luciferase reporter and YY1 expression. Type of series: cell-based. Particulars: pYY1-luciferase reporter (FIG. 11A). An excerpt:
TRAIL is produced by immune cells, and is a ligand for death receptors DR4, DR5, DcR1, and DcR2. […] Controls included untransfected (UNT) and DMSO. […] RKIP may have a direct role in the NPI-0052-induced sensitization to TRAIL. […] RKIP overexpression results in DR5 upregulation and cell sensitization to TRAIL-mediated apoptosis. YY1 acts as a suppressor of DR5 transcription and is positively regulated by NF-κB. […] Transfection controls include medium only and siRNA negative control. YY1 has a direct role in tumor sensitization to TRAIL apoptosis. […] Controls include transfected with the YY1-lucificerase reporter construct only, and cells treated with 10 μg/ml DHMEQ only. […] CMV-RKIP inhibited both mRNA transcription and protein expression of YY1. YY1 is inhibited by RKIP overexpression via NF-κB down-regulation.

The next series relates to Snail. Nature of the series: Snail expression (RT-PCR, Western blot). The following applies: DU-145, 5 or 10 μg/ml DHMEQ, 24 h, Western blot (FIG. 21D). (A western blot detects proteins with antibodies after separation by electrophoresis.)
The subject of a further series is RKIP. The experiment in a line: RKIP expression (RT-PCR, Western blot). Particulars: DU-145, 5 or 10 μg/ml DHMEQ, 24 h, Western blot (FIG. 21D).
For series [1] the following is noted: single agent, mice models; cited from earlier work.
Series [2] has as its system DU-145 cells. The experiment in a line: drug titration, trypan blue exclusion assay. It is filed as cell-based, human.
Another series relates to SK-MEL-28 melanoma. The following applies: read-out: LC50; cited from earlier work.
A further series concerns SF-539 CNS cancer. The following applies: read-out: LC50; cited from earlier work.
In series [3] the test system is National Cancer Institute's 60-cell-line panel. The following applies: cited from earlier work.
The subject of the next series is MDA-MB-435 breast cancer. Particulars: read-out: LC50; cited from earlier work.
In series [4] the test system is human colony-forming assays. Particulars: single agent; cited from earlier work.
Series [5] concerns HCT-116 human colon carcinoma. The following applies: cited from earlier work.
Series [6] deals with DU-145 cells. The experiment in a line: in vitro cell migration assay. It is filed as cell-based, human. The following applies: DU-145, 100 ng/ml TNF-α. How it is done: (§1) The functional significance of the NPI-0052-induced changes in the expression profiles of the above metastasis-related gene products was expected to be reflected in the migratory and invasive cell properties.
(§2) In vitro cell invasion and migration assays were performed using the 24/well BD Biocoat 3 micron migration chambers or 8 micron Matrigel invasion chambers (Becton Dickinson Labware, Bedford, Mass.), respectively, according to manufacturer's instructions. For both assays, cells were starved for 4-5 h prior to setting up the assay by adding basal medium supplemented with 0.1% BSA. RPMI 1640 medium containing 10% serum was used as chemoatractant. […] Data were expressed as the fold cell migration derived from the mean RFU of cell migration through the membrane towards FBS divided by the mean RFU of cell migration in the absence of FBS. […] Invaded cells through Matrigel were counted under the microscope at 40× magnification. Data were expressed as the percent invasion through the Matrigel Matrix and membrane relative to the migration through the control insert membrane.
(§3) For migratory assays, 10^5 cells were seeded in the upper chamber, while in the lower chamber RPMI 1640 containing 10% FBS was added. […] Only labeled cells that had migrated through the pores of the membrane were detected. […]

The subject of series [7] is DU-145 cells. The experiment in a line: in vitro Matrigel cell invasion assay. Type of series: cell-based, human. The following applies: DU-145, 100 ng/ml TNF-α. On the procedure: as §1, §2, §3

Converted amounts (≈) assume the structure as drawn.

Experimental for RKIP: RKIP transcript levels were determined by RT-PCR for each time point tested (0-12 h). Normalized mRNA values were derived by dividing the mRNA value of each target gene with the corresponding quantity of GAPDH mRNA. Statistical analysis was performed using the Mann-Whitney U test. P values: treated vs untreated cells. The data represent the mean values±SEM from three independent experiments. […] Protein levels were also determined. Protein lysates were harvested at various time points and subjected to Western Blot analysis for RKIP protein. Actin was used as an internal control for loading. Blots are representative of three independent and reproducible experiments.
(§4) DU-145 cells were treated with 5 or 10 μg/ml DHMEQ and protein lysates were harvested 24 h after treatment for RKIP and Snail protein determination by Western blot.
Experimental for Snail: as §4

As for `O=C(NC1=CC(=O)[C@H]2O[C@H]2[C@H]1O)c1ccccc1O` [DHMEQ], in the series with YY1, the “YY1 promoter luciferase activity” value is listed as “inhibited YY1 luciferase activity”. In addition, in the series with Snail, the Snail protein entry is “Snail suppression”. Also, in the series with RKIP, the RKIP protein entry is reported as “RKIP induction”.
With `C[C@@]12OC(=O)[C@]1([C@@H](O)[C@@H]1C=CCCC1)NC(=O)[C@@H]2CCCl` [NPI-0052, Salinosporamide A], the tolerance in vivo result in series [1] was “good tolerance”. In the series on DU-145 cells [2], the “ID20 drug concentration (subtoxic concentration)” value is given as 50 nM. Besides, the CC50 with SK-MEL-28 melanoma, in the series with SF-539 CNS cancer and with MDA-MB-435 breast cancer was less than 10 nM each time. The “LC50 differential between resistant and susceptible cell lines” value in series [3] is “greater than 4 log”. In series [4], the “toxicity in human colony-forming assays” value was “limited toxicity”. For the same molecule, the “IC50, in vitro cytotoxicity” value in [5] is recorded as 11 ng/mL (≈ 0.0351 µM).
For TNF-α, the “augmentation of migration compared to untreated cells” value in the series with DU-145 cells [6] is reported as roughly 10 fold. Moreover, the “augmentation of invasion compared to untreated cells” value with DU-145 cells [7] is recorded as roughly 10 fold.
